For series [1] the following is noted: no reference given; cited from earlier work.
Series [2] is described as follows: Base promoted cyclization of liberated aglycon after carbonate stop solution. The format is physicochemical. The settings on record: after addition of carbonate stop solution, pH ≈ 10. How it is done: With Kdn glycoside 4 in hand, we began assay development. […] We reasoned that hydroxyl group activation is required for cyclization. We therefore allowed the enzymatic reaction to proceed for 5 min and then raised the pH of the solution to a pH of ≈ 10 by addition of a solution of K2CO3 (Fig. 1D). We opted for this raised pH value because it would both facilitate cyclization releasing the 4MU reporter and also terminate the enzyme-catalyzed substrate hydrolysis. Using this approach, we observed a significant increase in fluorescence attributable to AfK-catalyzed hydrolysis of substrate 4. […] That is, in the absence of Kdnase, no hydroxycarbamate aglycon 6 is formed. […] Thus, >98% of the fluorescence signal is produced within 15 min following addition of the basic buffer (Fig. S2, supporting information).

For series [3], the target named is T1, AfK (Aspergillus fumigatus, UniProt Q4WQS0).
T1 construct: AfK was expressed and purified as described by Telford et al; made in house
T1 sequence (Q4WQS0 21-406): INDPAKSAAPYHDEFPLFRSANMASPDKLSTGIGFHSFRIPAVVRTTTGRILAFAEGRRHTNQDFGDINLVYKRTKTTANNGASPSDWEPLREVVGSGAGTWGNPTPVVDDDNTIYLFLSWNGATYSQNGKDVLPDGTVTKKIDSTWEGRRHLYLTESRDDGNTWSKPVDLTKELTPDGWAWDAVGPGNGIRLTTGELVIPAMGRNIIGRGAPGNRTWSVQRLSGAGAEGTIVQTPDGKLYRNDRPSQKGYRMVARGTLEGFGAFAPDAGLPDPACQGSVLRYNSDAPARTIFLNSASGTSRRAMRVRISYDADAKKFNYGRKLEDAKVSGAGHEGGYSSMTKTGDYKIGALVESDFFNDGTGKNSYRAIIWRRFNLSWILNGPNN
Briefly: Kdnase activity assay: Michaelis-Menten parameters for AfK-catalyzed hydrolysis of substrates. The format is biochemical. The settings on record: 100 mM NaOAc pH 4, 0.01% BSA, 21 °C. From the text: Next, we measured the Michaelis–Menten parameters for AfK-catalyzed hydrolysis of 4 so as to guide assay optimization for the downstream HTS. Specifically, we added stop solution to the AfK-catalyzed reaction at various times and then, after cyclization we measured the fluorescence, which we converted to product concentration using a standard calibration curve (Figs S3–S5, Supporting Information). As expected, our alkyl Kdn glycoside undergoes enzyme-catalyzed hydrolysis with lower rate constants than those for the activated Kdn glycoside 4MU-Kdn. Specifically, the second-order rate constant (kcat/Km) for the AfK-catalyzed hydrolysis of 4 is (4.0 ± 0.8) × 10^3 M^−1 s^−1, while that for 4MU-Kdn (1) is (1.8 ± 0.1) × 10^5 M^−1 s^−1 ([Yeung et al. 2013]) (Table S1, Supporting Information).
The activity of AfK was determined by measuring cleavage of the synthetic Kdnase substrate Kdn-SICL-4MU 4 (Fig. 1). Substrate 4 was incubated at rt for 10 min followed by the addition purified recombinant enzyme. A stop solution containing 100 mM K2CO3 pH ≈ 12 was added at a series of time points starting from 5, 10, 15, 30, 45, 60, 120, 180 min. […] The substrate concentration used ranged of 2–2,000 μM and the amount of 4-methylumbelliferone (4MU) released from 4 was determined using a fluorescence spectrophotometer (BioTek Neo 2) at excitation and emission wavelengths of 360 and 450 nm, respectively. […]

A further series relates to AtK. Nature of the series: Differential scanning fluorimetry (DSF) thermal shift assay, AtK. The conditions noted are these: inhibitor 500 µM. In kind it is binding, Aspergillus terreus. From the text: (§1) We next used a separate biophysical technique, differential scanning fluorimetry (DSF), to confirm that these compound bind to the various Kdnases. Specifically, we measured protein melting temperatures in the presence of Kdn2en (2) and candidate ligands 13 and 17 (Fig. 3D). […] We repeated this DSF assay on AtK and TrK and we observed similar trends in thermal shifts (Fig. S14 and Tables S2,S3 and S4, Supporting Information). […] Accordingly, further follow up on this compound would need to be pursued with an awareness of this possibility.
(§2) Table S3. Differential scanning fluorometry-based (DSF) assay for inhibitors 2, 13, and 17 binding to Af, At, Tr and MvNA. Protein thermal shifts(ΔTm) using DMSO (2.5%), and inhibitors 2, 13, and 17 at 500 µM against the Kdnase of Af, At, Tr and MvNA. Assay done using 5–10 µM enzyme and 100 mM pH 4.0 NaOAc (pH 5.5 MvNA). A temperature range of 25°C to 95°C was used with a gradient of 0.05°C/sec. […]
(§3) Table S4. Thermal shifts (ΔTm) for stabilization of AfK, AtK, TrK and MvNA on inhibitor binding relative to the DMSO (2.5%) control. […]

In series [4] the target is T1, AfK. Briefly: Differential scanning fluorimetry (DSF) thermal shift assay, AfK. The format is binding.
Text: as §1, §2, §3
(In general: Differential scanning fluorimetry follows unfolding on heating by fluorescence.)

A further series deals with MvNA (Micromonospora viridifaciens, UniProt Q02834). Briefly: Differential scanning fluorimetry (DSF) thermal shift assay, MvNA. In kind it is binding. The settings on record: inhibitor 500 µM. How it is done:
as §2, §3

The next series relates to TrK. Nature of the series: Differential scanning fluorimetry (DSF) thermal shift assay, TrK. The format is binding, Trichophyton rubrum. The conditions noted are these: inhibitor 500 µM.
Text: as §1, §2, §3

Series [5] addresses T2, Kdnase produced by A. fumigatus (AfK) (Aspergillus fumigatus, UniProt Q4WQS0).
T2 construct: AfK was expressed and purified as described by Telford et al; made in house
Further details: method as in Telford et al. (3). The conditions noted are these: Table S2; ref Telford et al. (3); cited from earlier work.

Series [6] deals with T1, AfK. The conditions noted are these: Table S1; ref Telford et al., J Biol Chem, 2011, 10783; cited from earlier work.
[7] abbreviates: 100 mM pH 4.0 NaOAc, 5–10 µM enzyme.

Where two headings read alike, the source gives them in different places.

These results are taken from paper PMC11727334, “A self-immolative Kdn-glycoside substrate enables high-throughput screening for inhibitors of Kdnases” (Glycobiology, 2024).

MvNA, sequence (Q02834 38-647): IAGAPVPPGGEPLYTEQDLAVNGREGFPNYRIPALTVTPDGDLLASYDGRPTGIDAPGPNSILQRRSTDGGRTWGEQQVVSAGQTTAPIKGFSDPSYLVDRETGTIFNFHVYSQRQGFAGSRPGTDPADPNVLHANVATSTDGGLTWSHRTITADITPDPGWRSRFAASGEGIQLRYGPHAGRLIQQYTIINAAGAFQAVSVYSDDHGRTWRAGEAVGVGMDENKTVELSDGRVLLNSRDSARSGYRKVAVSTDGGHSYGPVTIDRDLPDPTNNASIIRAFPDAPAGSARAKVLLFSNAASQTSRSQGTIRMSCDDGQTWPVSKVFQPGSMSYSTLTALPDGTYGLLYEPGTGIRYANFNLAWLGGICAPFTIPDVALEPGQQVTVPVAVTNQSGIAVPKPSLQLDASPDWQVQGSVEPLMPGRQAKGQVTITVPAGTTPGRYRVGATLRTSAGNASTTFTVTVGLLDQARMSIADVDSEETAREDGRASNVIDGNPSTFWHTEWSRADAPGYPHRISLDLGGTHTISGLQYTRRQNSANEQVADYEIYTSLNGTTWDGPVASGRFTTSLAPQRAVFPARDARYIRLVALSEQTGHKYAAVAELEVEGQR
T2 sequence (Q4WQS0 21-406): as the sequence (Q4WQS0 21-406) above

Consider `Cc1cc(=O)oc2cc(O)ccc12` [4MU, 4-methylumbelliferone], for which, in series [1], the pKa (as a rule, the negative logarithm of the acid dissociation constant) was 8.4.

For `Cc1cc(=O)oc2cc(OC(=O)N(C)CCO)ccc12` [compound 6], the “half-life (t1/2) of first-order cyclization” value in series [2] is recorded as “approximately 2.5 min”.

Consider `Cc1cc(=O)oc2cc(OC(=O)N(C)CCO[C@]3(C(=O)O)C[C@H](O)[C@@H](O)[C@H]([C@H](O)[C@H](O)CO)O3)ccc12` [compound 4, N-methyl-(N-4′-methylumbelliferylcarbonyl)-2-aminoethyl 3-deoxy-D-glycero-α-D-galacto-non-2-ulopyranosidonic acid], for which, at AfK [3], the Km (usually the concentration of substrate that gives half-maximal velocity) stood at 950 µM and the kcat came to 3.7 ± 0.2 s–1.

Turning to `O=C(O)C1=C[C@H](O)[C@@H](O)[C@H]([C@H](O)[C@H](O)CO)O1` [compound 2, Kdn2en, reference compound], the “Thermal shift (ΔTm) relative to DMSO (2.5%) control” value is “+3.4 ± 0.1 °C” in the series with AtK (Table S4) and “+15.0 ± 0.2 °C” in the series with TrK (Table S4). Also, the “protein melting temperature (DSF, Table S3)” value with AtK (setting [7]) was determined as 55.3 ± 0.1 °C; on AfK [4] (inhibitor 500 µM, 100 mM pH 4.0 NaOAc, 5–10 µM enzyme), 53.2 ± 0.1 °C; at MvNA (pH 5.5, 5–10 µM enzyme), 54.4 ± 0.1 °C; with TrK (setting [7]), 49.7 ± 0.2 °C. On AfK [4] (AfK), the “effect on thermal stability of the folded enzyme (DSF, in words)” value is “positive unfolding temperature shifts”. For the same compound, the ΔTm at 500 µM at AfK [4] (read-out: Thermal shift (ΔTm) relative to DMSO (2.5%) control) was found to be 1.7 °C; on MvNA (Table S4, read-out: Thermal shift (ΔTm) relative to DMSO (2.5%) control), 0.5 °C. Also, in series [5], the IC50 – broadly, the concentration at which inhibition is half-maximal – was 556 µM. For the same compound, in series [5], the Ki (usually the equilibrium dissociation constant of an inhibitor or competing ligand from its target) is 102 µM.

As for `Cc1cc(=O)oc2cc(O[C@]3(C(=O)O)C[C@H](O)[C@@H](O)[C@H]([C@H](O)[C@H](O)CO)O3)ccc12` [compound 1, 4-methylumbelliferyl 3-deoxy-D-glycero-D-galacto-non-2-ulopyranosidonic acid], on AfK [6], the Km was 230 ± 20 µM and the kcat is reported as 41 ± 4 s–1.
